# Experimental data: patent US20190106747A1, “DRUGS, PHARMACOGENOMICS AND BIOMARKERS FOR ACIVE LONGEVITY” (Indiana University Research and Technology Corporation, priority 2016, published 2019)
# Key:
# [1] = system: C. elegans; test: Survival after paraquat (oxidative stress) in Mianserin-treated C. elegans; type: in vivo; conditions: three independent alleles (e362, e1197, e1260) of ANK3/unc-44; 50 μM Mianserin from day 1 adult, paraquat five days later
# Procedure: FIG. 4A are graphs depicting Mianserin-induced protection from oxidative stress requires ANK3/unc-44, the C. elegans homolog of mammalian ANK3. Wild-type (wt) N2 strain (dotted lines) or ANK3/unc-44 mutants (bold lines), at day 1 adult stage, were treated with water (black) or 50 μM Mianserin (red), followed by increasing concentrations of paraquat five days later. Survival of animals was determined 24 h after paraquat addition and plotted in [%] (Y-axis) as a function of paraquat concentration [mM] (X-axis). Parallel wt (N2) control experiments (dotted lines) are shown for each graph. […] All error bars show S.E.M for 3 to 4 independent experiments.
# [2] = system: C. elegans; test: Lifespan of C. elegans treated with Mianserin; type: in vivo; conditions: for increase in lifespan: 50 μM Mianserin vs water
# Procedure: FIG. 4B is a graph depicting lifespan curves of wt and unc-44(e362) animals treated with water or 50 μM Mianserin. […] (Y-axis) as a function of time [days] (X-axis). Dotted lines represent wt (N2) animals and bold lines represent unc-44(e362) mutants. Black: solvent control; red: Mianserin 50 μM. […] Asterisks indicate P values (**; P<0.01, ***P<0.001).
# FIG. 4C is a graph depicting mean increase in lifespan [%] (Y-axis) as a function of Mianserin concentration [μM] (X-axis). Solid red line represents unc-44(e362) animals. Dotted red line represents the parallel control experiment of Mianserin-treated wt (N2) animals. Error bars show standard deviation for experimental replicates.
# [3] = target: T1, PLA2G6 (Homo sapiens, UniProt O60733); conditions: existing drug targeting top longevity biomarker; cited from earlier work
# T1 sequence (O60733 1-806): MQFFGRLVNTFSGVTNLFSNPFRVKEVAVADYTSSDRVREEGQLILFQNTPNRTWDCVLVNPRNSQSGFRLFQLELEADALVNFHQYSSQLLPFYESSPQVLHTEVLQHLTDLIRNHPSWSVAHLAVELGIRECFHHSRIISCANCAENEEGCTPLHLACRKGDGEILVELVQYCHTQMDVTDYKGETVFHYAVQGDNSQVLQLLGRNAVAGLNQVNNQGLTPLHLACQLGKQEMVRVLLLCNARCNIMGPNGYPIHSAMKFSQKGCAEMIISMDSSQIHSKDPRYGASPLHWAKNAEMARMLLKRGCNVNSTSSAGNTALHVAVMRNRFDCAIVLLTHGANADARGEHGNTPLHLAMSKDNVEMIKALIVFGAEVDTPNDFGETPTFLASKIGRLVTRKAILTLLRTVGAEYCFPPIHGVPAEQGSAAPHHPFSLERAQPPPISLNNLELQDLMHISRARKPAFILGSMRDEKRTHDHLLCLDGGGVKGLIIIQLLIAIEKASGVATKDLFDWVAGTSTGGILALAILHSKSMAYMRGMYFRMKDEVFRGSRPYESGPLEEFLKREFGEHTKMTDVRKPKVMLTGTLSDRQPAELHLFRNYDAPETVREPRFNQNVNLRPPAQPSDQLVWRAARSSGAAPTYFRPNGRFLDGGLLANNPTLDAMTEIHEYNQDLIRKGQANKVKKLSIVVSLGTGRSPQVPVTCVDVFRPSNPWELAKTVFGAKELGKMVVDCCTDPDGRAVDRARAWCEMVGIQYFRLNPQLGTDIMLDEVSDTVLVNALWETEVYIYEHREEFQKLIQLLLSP
# [4] = system: POLH; conditions: Table 4 universal biomarkers; longevity direction of change I; cited from earlier work
# [5] = system: ANK3; conditions: amygdala of a mouse model of mood disorders and stress; previous work; cited from earlier work
# [6] = system: NAV1; conditions: Table 4 universal biomarkers; longevity direction of change D; cited from earlier work
# [7] = system: worms; conditions: direct prior experimental evidence; cited from earlier work
# [8] = target: ABCC1 (Homo sapiens, UniProt P33527); conditions: existing drug targeting top longevity biomarker; cited from earlier work
# [9] = system: MME; conditions: Table 5 biomarkers in males; longevity direction of change D; cited from earlier work
# Sequence of ABCC1 (P33527 whole entry): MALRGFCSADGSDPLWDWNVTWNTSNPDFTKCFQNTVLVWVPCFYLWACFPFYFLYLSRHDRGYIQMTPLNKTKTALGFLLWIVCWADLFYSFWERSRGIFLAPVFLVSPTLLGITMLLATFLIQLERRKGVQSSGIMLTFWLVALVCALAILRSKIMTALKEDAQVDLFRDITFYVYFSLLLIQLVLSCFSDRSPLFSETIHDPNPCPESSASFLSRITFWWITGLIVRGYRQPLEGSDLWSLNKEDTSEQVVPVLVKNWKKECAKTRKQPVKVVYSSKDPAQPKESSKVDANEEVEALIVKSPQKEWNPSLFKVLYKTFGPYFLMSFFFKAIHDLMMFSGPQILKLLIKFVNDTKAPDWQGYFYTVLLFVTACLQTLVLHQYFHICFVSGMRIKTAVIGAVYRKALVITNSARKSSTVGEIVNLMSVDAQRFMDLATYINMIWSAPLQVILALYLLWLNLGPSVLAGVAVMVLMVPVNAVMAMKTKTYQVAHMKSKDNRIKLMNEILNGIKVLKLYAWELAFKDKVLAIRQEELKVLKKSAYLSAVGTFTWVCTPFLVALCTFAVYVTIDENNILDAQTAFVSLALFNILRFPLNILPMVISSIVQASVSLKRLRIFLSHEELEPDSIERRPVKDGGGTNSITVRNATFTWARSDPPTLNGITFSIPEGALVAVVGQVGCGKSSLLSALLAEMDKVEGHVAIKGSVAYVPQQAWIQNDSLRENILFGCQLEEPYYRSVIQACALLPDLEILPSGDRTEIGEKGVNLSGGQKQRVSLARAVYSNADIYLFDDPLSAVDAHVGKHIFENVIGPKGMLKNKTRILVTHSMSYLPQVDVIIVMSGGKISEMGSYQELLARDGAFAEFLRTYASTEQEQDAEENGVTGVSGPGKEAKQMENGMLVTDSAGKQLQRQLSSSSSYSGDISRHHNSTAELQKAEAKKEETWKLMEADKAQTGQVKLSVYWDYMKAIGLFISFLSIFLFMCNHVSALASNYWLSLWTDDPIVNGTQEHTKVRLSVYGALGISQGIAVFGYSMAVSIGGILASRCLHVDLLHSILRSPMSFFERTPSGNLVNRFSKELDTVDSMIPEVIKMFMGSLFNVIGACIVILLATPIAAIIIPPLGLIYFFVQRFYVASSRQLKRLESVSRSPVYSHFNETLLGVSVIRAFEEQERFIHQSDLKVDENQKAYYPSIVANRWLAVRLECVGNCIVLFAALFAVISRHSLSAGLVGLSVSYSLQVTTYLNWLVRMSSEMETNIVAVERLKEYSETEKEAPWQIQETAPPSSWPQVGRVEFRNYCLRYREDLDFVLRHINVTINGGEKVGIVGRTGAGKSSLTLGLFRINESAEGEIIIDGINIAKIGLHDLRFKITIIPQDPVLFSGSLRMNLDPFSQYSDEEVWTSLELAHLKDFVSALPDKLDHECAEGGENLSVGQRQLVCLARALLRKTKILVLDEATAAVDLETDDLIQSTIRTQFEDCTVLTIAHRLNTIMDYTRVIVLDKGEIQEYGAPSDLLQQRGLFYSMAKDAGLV
compound,measurement,setting,value
"CN1CCN2c3ccccc3Cc3ccccc3C2C1 (racemic) [Mianserin, (±)-2-methyl-1,2,3,4,10,14b-hexahydrodibenzo[c,f]pyrazino[1,2-a]azepine]",resistance to oxidative stress (survival 24 h after paraquat),[1],failed to increase resistance to oxidative stress
same,lifespan extension as a function of Mianserin concentration,"[2]; ANK3/unc-44(e362) mutants, any Mianserin concentration",No lifespan extension
same,increase in lifespan,[2]; unc-44(e362) mutant animals,−9%
same,increase in lifespan,[2]; wild-type (N2) animals,+40%
"CCN(CC)CCCC(C)Nc1c2ccc(Cl)cc2nc2ccc(OC)cc12 (racemic) [quinacrine, (RS)—N′-(6-Chloro-2-methoxy-acridin-9-yl)-N,N-diethylpentane-1,4-diamine]",effect on PLA2G6,[3],inhibiting
NC(=O)N1c2ccccc2C=Cc2ccccc21 [Carbamazepine],POLH modulated by drug in the same direction as longevity,[4],Carbamazepine
CC/C=C\C/C=C\C/C=C\C/C=C\C/C=C\C/C=C\CCC(=O)O [DHA],ANK3 expression,[5],decreased
COc1ccc(C(CN(C)C)C2(O)CCCCC2)cc1 (centres unmarked) [Venlafaxine],NAV1 modulated by drug in the same direction as longevity,[6],Venlafaxine
"C[C@]12CC[C@@H]3c4ccc(O)cc4CC[C@H]3[C@@H]1CC[C@@H]2O [estradiol, (8R,9S,13S,14S,17S)-13-methyl-6,7,8,9,11,12,14,15,16,17-decahydrocyclopenta[a]phenanthrene-3,17-diol]",lifespan,[7],extending lifespan
"O=C1C(CC[S+]([O-])c2ccccc2)C(=O)N(c2ccccc2)N1c1ccccc1 (centres unmarked) [sulfinpyrazone, 1,2-diphenyl-4-[2-(phenylsulfinyl)ethyl]pyrazolidine-3,5-dione]",effect on ABCC1,[8],inhibiting
sacubitril/valsartan,MME modulated by drug in the same direction as longevity,[9],sacubitril/
